Laboratory results: PMC11794677, “Self‐Assembly of a Conjugate of Lipoic Acid With a Collagen‐Stimulating Pentapeptide Showing Cytocompatibility and Wound Healing Properties, and Chemical and Photolytic Disassembly” (Journal of Peptide Science, 2025)

Tests used:
[1] = UV exposure / photodegradation, UV-vis absorbance at 333 nm; format: physicochemical; details: UV lamp 365 nm for 1 h, 0.1 wt% solution, read 24 h after irradiation
Protocol: To investigate the effect of UV exposure on lipoyl‐KTTKS the peptide powder was irradiated using a 4W UVGL‐25 lamp (Analytik Jena, Germany) at a wavelength of 365 nm for 1 h. The absorbance was tracked at 333 nm before, just after exposure and 24 h after exposure using a nanodrop spectrometer (Thermo‐Fisher Scientific). The full spectra were also collected using a Varian Cary Bio 300 UV‐vis (Cary).
Lipoic acid is susceptible to photolysis upon exposure to UV light. Photodegradation of lipoyl‐KTTKS was studied via UV‐vis, FTIR and CD spectroscopy and degradation products were analysed by electrospray ionisation‐mass spectroscopy (ESI‐MS). Photolysis was induced by exposure to UV for 1 h using a UV lamp with 365‐nm radiation. Lipoic acid presents a characteristic weak band at 333 nm that is related to the hindered dithiolane ring, that can be broken by UV irradiation. The absorbance of lipoyl‐KTTKS (0.1 wt% solution) before irradiation, just after and 24 h after irradiation to evaluate the recovery of the dithiolane ring is shown in Figure 5. […] The UV exposure disrupts the dithiolane ring, as reflected also in the FTIR spectrum (Figure S2), with the suppression of bands ν(S‐S) at 519 and 438 cm^−1 and ν(C‐S) at 721 cm^−1 [48, 49].

[2] = system: HDFa cells; experiment: Scratch assay of in vitro wound healing; format: cell-based, Human; details: 0.0062 wt% in DMEM without serum
Protocol: For the scratch assay, 5 × 10^4 cells into were seeded into 24‐well plates, and cells were allowed to reach confluence. After reaching 90% confluence, a scratch was made in the middle of the well using a 200‐μL pipette tip and cells were incubated at 37°C in an atmosphere 5% CO2. The media used was DMEM without serum for the controls or DMEM without serum + lipoyl‐KTTKS at different concentrations. Pictures were taken periodically using a standard inverted optical microscope with phase contrast filters to monitor cell migration and wound closure.
As a simple in vitro ‘wound healing’ model, scratch assays were performed by creating a scratch in a layer of cells. Images of the confluent cell layer are presented in SI Figure S5. The scratch assay is a simple and affordable procedure consisting of simulating the closure of a skin wound by scratching a monolayer of fibroblasts seeded at high confluence and monitoring how long it takes for the cells to migrate and recover the ‘wound’ [51, 52, 53]. As evident from the images in Figure S5, the recovery of cells incubated with 0.0062 wt% lipoyl‐KTTKS was enhanced, with complete closure of the scratch after 48 h.

Substance: lipoyl‐KTTKS [peptide amphiphile comprising a conjugate of lipoic acid to pentapeptide KTTKS]
- Recovery of absorbance at 333 nm (dithiolane ring) after UV exposure [1]: incomplete recovery
- Time to first signs of recovery of the scratch [2]: 12 h
- Time to complete closure of the scratch ([2]; control closed only after 72 h): 48 h
